Results on 23 compounds are retold here after patent publication US10508086B2 (CANCER RESEARCH TECHNOLOGY LIMITED, priority 2014, dated 2019).

In assay [1] the target is Human Full Length PARG (Homo sapiens (Human), UniProt Q86W56). The assay can be described thus: PARG in vitro enzyme assay (TR-FRET). In kind it is biochemical. The conditions noted are these: read-out: PARG_EC50_ENZYME. The procedure, abridged:
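Full-length human PARG ([…]) incubated with ribosylated PARP substrate (4.5 nM) for 10 min at room temperature in Tris pH 7.4 buffer with EDTA, EGTA, DTT, KCl. Detection by TR-FRET using anti-6HIS XL665 (14 nM final) and streptavidin europium cryptate (0.75 nM final) after 60 min; Em665/Em620 ratio converted to percent inhibition.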
For orientation: Time-resolved FRET reads energy transfer from a long-lived donor to a nearby acceptor.

Assay [2] concerns the target PARG in HeLa cell line (Homo sapiens (Human), UniProt Q86W56). The assay can be described thus: PARG cell assay (nuclear PAR chains after MMS, immunofluorescence). It counts as cell-based. The conditions noted are these: HeLa cells, MMS 50 μg/mL; read-out: PARG Cell IC50 Geomean. The procedure, abridged:
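HeLa cells pre-dosed 1 h with compound (10-point dose response), then MMS 50 μg/mL for a further hour at 37 °C. Fixed cells immunostained with anti-PAR antibody plus Alexa Fluor 488 secondary and Hoechst. High-content imaging quantified nuclear PAR fluorescence intensity; inhibition maintains PAR chains.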

Assay [3] addresses Human Full Length ARH3 (Homo sapiens (Human), UniProt Q9NX46). The assay can be described thus: ARH3 in vitro selectivity assay (TR-FRET). It counts as biochemical. The conditions noted are these: read-out: ARH3 Biochem IC50. The method, then: ARH3 In vitro selectivity assays were conducted in a total volume of 15 ul in a standard 384 well format. 5 ul of Human Full Length ARH3 (Enzo Life Sciences: ALX-201-292), used at a final reaction concentration of 17.5 nM, was added to 5 ul of Ribosylated PARP substrate (also produced internally by Astra Zeneca) at final reaction concentration of 4.5 nM in assay buffer (50 mM Tris pH7.4, 0.1 mg/ml BSA, 3 mM EDTA, 0.4 mM EGTA, 1 mM DTT, 0.01% Tween 20, 50 mM KCl). The reaction was incubated at room temperature for 30 minutes and then 5 ul detection reagent was added. Detection Reagent consists of 42 nM MAb Anti-6HIS XL665 (CisBio: 61HISXLB) and 2.25 nM Streptavidin Europium Cryptate (CisBio: 610SAKLB), both at 3× working stock concentrations (final concentrations of 14 nM and 0.75 nM respectively), in a detection buffer of 50 mM Tris pH7.4, BSA at 0.1 mg/ml and KF at 100 mM. Following incubation at room temperature for 60 minutes in the dark, TR-FRET signal was measured at Ex 340 and Em 665 and Em 620. A ratio was calculated as Em665/EM620×104 for each well and used to calculate percent inhibition for test compounds.

Assay [4] addresses Human High specific Activity PARP1 (Homo sapiens (Human), UniProt P09874). Kind of assay: PARP1 in vitro selectivity assay (histone PARylation, luminescence). In kind it is biochemical. The conditions noted are these: read-out: PARP1 Biochem IC50. As for the experimental part: PARP1 In vitro selectivity assays were conducted as a 10 ul reaction volume in a NUNC Maxisorp 384-well assay plate pre-coated in-house with Histones. 5 ul of Human High specific Activity PARP1 (Trevigen: 4668-100-01) was used at a final reaction concentration of 0.02 units/ml in 1×PARP Buffer (Trevigen: 4671-096-02) with 5 ul of 1×PARP cocktail, which is a mixture of 10×PARP Cocktail (Trevigen: 4671-096-03), 10× Activate DNA (Trevigen: 4671-096-06) and 20×PARP Buffer (as above). The reaction was incubated at room temperature for 60 minutes to allow histones on the coated plate to become PARylated. The wells were then washed with PBS/0.1% Triton X100. PARP1 activity was then detected by measuring the extent of PARylation. Firstly, 10 ul of Streptavidin-HRP (Trevigen: 4800-30-06), diluted 1 in 250 in 1×PARG Assay Buffer (Trevigen: 4680-096-02), was added to each well and incubated at room temperature for 60 minutes. Secondly, following another wash with PBS/0.1% Triton X100, Peroxy Glow Reagents A and B (Trevigen: 4675-096-01 and 4675-096-02) were mixed in equal quantities immediately before use and 100 ul was added to each well. Luminescence signal was then measured immediately.

As usually defined, the IC50 is the concentration at which inhibition is half-maximal.

Chain of PARG in HeLa cell line (Q86W56 whole entry): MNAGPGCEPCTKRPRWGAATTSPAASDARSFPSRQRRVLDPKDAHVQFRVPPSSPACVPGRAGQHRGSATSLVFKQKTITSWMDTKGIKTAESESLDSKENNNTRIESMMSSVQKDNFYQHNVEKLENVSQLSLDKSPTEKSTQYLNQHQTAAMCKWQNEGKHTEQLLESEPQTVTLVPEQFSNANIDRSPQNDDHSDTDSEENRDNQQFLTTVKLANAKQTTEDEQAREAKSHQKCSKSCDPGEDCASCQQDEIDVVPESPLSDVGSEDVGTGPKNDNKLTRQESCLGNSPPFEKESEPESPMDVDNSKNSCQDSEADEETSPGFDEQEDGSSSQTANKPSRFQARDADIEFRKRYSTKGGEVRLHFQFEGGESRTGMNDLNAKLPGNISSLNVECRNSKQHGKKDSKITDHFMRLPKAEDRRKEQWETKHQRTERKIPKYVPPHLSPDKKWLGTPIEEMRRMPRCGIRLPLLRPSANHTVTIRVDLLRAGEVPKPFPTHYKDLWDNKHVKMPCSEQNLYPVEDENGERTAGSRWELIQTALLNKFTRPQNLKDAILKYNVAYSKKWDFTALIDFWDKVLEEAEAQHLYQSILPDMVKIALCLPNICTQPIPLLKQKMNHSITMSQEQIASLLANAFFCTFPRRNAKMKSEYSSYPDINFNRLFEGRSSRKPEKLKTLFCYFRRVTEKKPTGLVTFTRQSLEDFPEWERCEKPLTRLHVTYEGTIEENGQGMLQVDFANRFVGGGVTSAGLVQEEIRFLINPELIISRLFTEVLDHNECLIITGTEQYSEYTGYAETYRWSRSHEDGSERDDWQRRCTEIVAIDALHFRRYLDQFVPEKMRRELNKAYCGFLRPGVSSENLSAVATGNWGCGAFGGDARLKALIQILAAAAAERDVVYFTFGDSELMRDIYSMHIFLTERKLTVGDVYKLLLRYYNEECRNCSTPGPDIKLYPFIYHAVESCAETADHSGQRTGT
Chain of Human Full Length PARG (Q86W56 whole entry): as above
Chain of Human Full Length ARH3 (Q9NX46 whole entry): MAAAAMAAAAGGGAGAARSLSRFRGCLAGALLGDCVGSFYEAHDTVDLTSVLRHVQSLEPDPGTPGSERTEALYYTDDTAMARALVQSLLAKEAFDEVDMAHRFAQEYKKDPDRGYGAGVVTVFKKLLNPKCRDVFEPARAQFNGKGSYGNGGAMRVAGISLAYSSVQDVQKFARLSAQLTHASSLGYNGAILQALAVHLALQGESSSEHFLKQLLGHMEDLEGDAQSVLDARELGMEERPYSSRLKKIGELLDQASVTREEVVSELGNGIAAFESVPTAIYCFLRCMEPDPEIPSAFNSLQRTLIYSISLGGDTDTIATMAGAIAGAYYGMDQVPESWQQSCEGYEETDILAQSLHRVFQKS
Chain of Human High specific Activity PARP1 (P09874 whole entry): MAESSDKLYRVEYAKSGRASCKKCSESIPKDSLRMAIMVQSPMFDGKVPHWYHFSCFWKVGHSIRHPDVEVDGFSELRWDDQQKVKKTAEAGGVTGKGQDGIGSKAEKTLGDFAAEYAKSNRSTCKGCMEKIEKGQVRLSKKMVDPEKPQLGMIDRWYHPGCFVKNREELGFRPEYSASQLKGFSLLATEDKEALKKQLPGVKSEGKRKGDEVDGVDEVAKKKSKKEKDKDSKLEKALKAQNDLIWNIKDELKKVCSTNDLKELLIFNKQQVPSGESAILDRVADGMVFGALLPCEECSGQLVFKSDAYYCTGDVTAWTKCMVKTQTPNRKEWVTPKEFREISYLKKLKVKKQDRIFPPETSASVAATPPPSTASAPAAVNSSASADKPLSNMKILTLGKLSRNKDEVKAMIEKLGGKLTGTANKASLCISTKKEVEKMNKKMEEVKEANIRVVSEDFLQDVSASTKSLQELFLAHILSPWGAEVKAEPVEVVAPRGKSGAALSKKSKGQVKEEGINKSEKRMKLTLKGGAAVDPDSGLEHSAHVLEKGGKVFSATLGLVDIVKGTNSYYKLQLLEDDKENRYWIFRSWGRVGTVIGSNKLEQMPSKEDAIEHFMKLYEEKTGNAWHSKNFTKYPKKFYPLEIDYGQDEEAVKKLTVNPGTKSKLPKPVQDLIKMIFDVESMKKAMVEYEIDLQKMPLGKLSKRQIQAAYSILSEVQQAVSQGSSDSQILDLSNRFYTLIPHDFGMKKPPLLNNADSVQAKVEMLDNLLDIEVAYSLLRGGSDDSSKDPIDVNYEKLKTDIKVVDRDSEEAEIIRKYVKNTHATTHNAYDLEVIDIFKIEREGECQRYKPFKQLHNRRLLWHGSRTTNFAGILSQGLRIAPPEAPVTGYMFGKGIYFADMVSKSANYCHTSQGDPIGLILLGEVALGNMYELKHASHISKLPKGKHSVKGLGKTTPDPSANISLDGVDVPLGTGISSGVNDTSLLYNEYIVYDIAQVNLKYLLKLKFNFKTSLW

For `C#CCn1c(=O)n(-c2nnc(C(F)F)s2)c2cc(S(=O)(=O)NC3(CF)CC3)c(F)cc21` [Example 213, 3-[5-(Difluoromethyl)-1,3,4-thiadiazol-2-yl]-6-fluoro-N-[1-(fluoromethyl)cyclopropyl]-2-oxo-1-prop-2-ynyl-benzimidazole-5-sulfonamide], the EC50 in assay [1] is 29 nM. Besides, the figures for the IC50 in assay [2] and in assay [3] were 16 nM and > 150000 nM, respectively.

As for `Cn1c(=O)n(-c2nnc(C(F)F)s2)c2cc(S(=O)(=O)NC3(C)CC3)ccc21` [Example 79], in assay [1], the EC50 was 652 nM. The figures for the IC50 in assay [3] and in assay [4] were > 100000 nM and > 150000 nM, respectively.

Turning to `Cc1cc(Cc2nc3ccc(S(=O)(=O)NC4(C)CC4)cc3n2-c2nnc(C)s2)on1` [Example 118], the EC50 in assay [1] stood at 671 nM. Further, the IC50 in assay [3] and in assay [4] was > 150000 nM throughout.

Consider `O=c1n(CCF)c2cc(F)c(S(=O)(=O)NC3(CF)CC3)cc2n1-c1nnc(C(F)F)s1` [Example 216, 3-[5-(Difluoromethyl)-1,3,4-thiadiazol-2-yl]-6-fluoro-1-(2-fluoroethyl)-N-[1-(fluoromethyl)cyclopropyl]-2-oxo-benzimidazole-5-sulfonamide], for which the EC50 in assay [1] was 51 nM. The results for the IC50 in assay [2] and in assay [3] were 33 nM and > 150000 nM, respectively.

For `CC1(NS(=O)(=O)c2cc3c(cc2F)n(CCF)c(=O)n3-c2nnc(C(F)F)o2)CC1` [Example 211, 3-[5-(Difluoromethyl)-1,3,4-oxadiazol-2-yl]-6-fluoro-1-(2-fluoroethyl)-N-(1-methylcyclopropyl)-2-oxo-benzimidazole-5-sulfonamide], in assay [1], the EC50 came out at 401 nM. Moreover, the IC50 in assay [2] is 135 nM; in assay [3] it was > 150000 nM.

In the case of `O=c1n(CCF)c2cc(F)c(S(=O)(=O)NC3(CF)CC3)cc2n1-c1nnc(C(F)F)o1` [Example 212, 3-[5-(Difluoromethyl)-1,3,4-oxadiazol-2-yl]-6-fluoro-1-(2-fluoroethyl)-N-[1-(fluoromethyl)cyclopropyl]-2-oxo-benzimidazole-5-sulfonamide], in assay [1], the EC50 amounted to 129 nM. Further, the figures for the IC50 in assay [2] and in assay [3] were 110 nM and > 150000 nM, respectively.

With `Cc1nsc(-n2c(=O)n(CC#N)c3ccc(S(=O)(=O)NC4(C)CC4)cc32)n1` [Example 179, 1-(Cyanomethyl)-N-(1-methylcyclopropyl)-3-(3-methyl-1,2,4-thiadiazol-5-yl)-2-oxo-benzimidazole-5-sulfonamide], in assay [1], the EC50 worked out at 1150 nM. Besides, the IC50 in assay [2] is 1160 nM.

Turning to `CCn1c(=O)n(-c2nnc(C(F)F)o2)c2cc(S(=O)(=O)NC3(C)CC3)c(F)cc21` [Example 199, 3-[5-(Difluoromethyl)-1,3,4-oxadiazol-2-yl]-1-ethyl-6-fluoro-N-(1-methylcyclopropyl)-2-oxo-benzimidazole-5-sulfonamide], the EC50 in assay [1] is 314 nM. Also, in assay [2], the 50% inhibitory concentration (IC50) worked out at 145 nM.

Take `Cc1nsc(-n2c(=O)n(CC#N)c3ccc(S(=O)(=O)NC4(CF)CC4)cc32)n1` [Example 180, 1-(Cyanomethyl)-N-[1-(fluoromethyl)cyclopropyl]-3-(3-methyl-1,2,4-thiadiazol-5-yl)-2-oxo-benzimidazole-5-sulfonamide]: in assay [1], the EC50 worked out at 1130 nM. Further, the IC50 in assay [2] worked out at 1930 nM.

With `Cc1nc(C)c(Cn2c(=O)n(-c3nccs3)c3cc(S(=O)(=O)NC4(C)CC4)ccc32)s1` [Example 111], the EC50 in assay [1] amounted to 147 nM. In assay [2], the half-maximal inhibitory concentration (IC50) was determined as 507 nM.

Regarding `Cc1nnc(-n2c(=O)n(C)c3ccc(S(=O)(=O)NC4(CF)CC4)cc32)s1` [Example 156, N-[1-(Fluoromethyl)cyclopropyl]-1-methyl-3-(5-methyl-1,3,4-thiadiazol-2-yl)-2-oxo-benzimidazole-5-sulfonamide], the EC50 in assay [1] came to 686 nM. Moreover, the IC50 in assay [2] came to 589 nM.

Consider `Cc1ccc(Cn2c(=O)n(-c3nnc(C)s3)c3cc(S(=O)(=O)NC4(C)CC4)ccc32)s1` [Example 104], for which the EC50 in assay [1] was 280 nM. For the same compound, the IC50 in assay [2] stood at 245 nM.

In the case of `CCOC(=O)c1oc2ccc(S(=O)(=O)NC3(C)CC3)cc2c1C` [Example 218, Ethyl 3-methyl-5-[(1-methylcyclopropyl)sulfamoyl]benzofuran-2-carboxylate], the EC50 in assay [1] amounted to 15800 nM. The IC50 in assay [2] is 2810 nM.

For `NC(=O)Cn1c(=O)n(-c2nnc(C(F)F)s2)c2cc(S(=O)(=O)NC3(CF)CC3)c(F)cc21` [Example 214, 2-[3-[5-(Difluoromethyl)-1,3,4-thiadiazol-2-yl]-6-fluoro-5-[[1-(fluoromethyl)cyclopropyl]sulfamoyl]-2-oxo-benzimidazol-1-yl]acetamide], the EC50 in assay [1] came out at 165 nM. Moreover, in assay [2], the IC50 turned out to be 1520 nM.

In the case of `Cn1c(=O)n(-c2ccc(C(F)(F)F)nn2)c2cc(S(=O)(=O)NC3(CF)CC3)c(F)cc21` [Example 206, 6-Fluoro-N-[1-(fluoromethyl)cyclopropyl]-1-methyl-2-oxo-3-[6-(trifluoromethyl)pyridazin-3-yl]benzimidazole-5-sulfonamide], the EC50 in assay [1] stood at 3970 nM. Also, the IC50 in assay [2] was 970 nM.

For the compound `Cc1ccc(-n2c(=O)n(C)c3cc(F)c(S(=O)(=O)NC4(C)CC4)cc32)nn1` [Example 205, 6-Fluoro-1-methyl-N-(1-methylcyclopropyl)-3-(6-methylpyridazin-3-yl)-2-oxo-benzimidazole-5-sulfonamide], the EC50 in assay [1] worked out at 6690 nM. In assay [2], the IC50 came to 5760 nM.

Regarding `CCn1c(=O)n(-c2nnc(C(F)F)o2)c2cc(S(=O)(=O)NC3(CF)CC3)c(F)cc21` [Example 200, 3-[5-(Difluoromethyl)-1,3,4-oxadiazol-2-yl]-1-ethyl-6-fluoro-N-[1-(fluoromethyl)cyclopropyl]-2-oxo-benzimidazole-5-sulfonamide], the EC50 in assay [1] came out at 112 nM. The results for the IC50 in assay [2] and in assay [3] were 126 nM and > 150000 nM, respectively.

`Cc1nsc(-n2c(=O)n(C)c3cc(F)c(S(=O)(=O)NC4(C)CC4)cc32)n1` [Example 171, 6-Fluoro-1-methyl-N-(1-methylcyclopropyl)-3-(3-methyl-1,2,4-thiadiazol-5-yl)-2-oxo-benzimidazole-5-sulfonamide]: in assay [1], the EC50 turned out to be 7110 nM. Besides, the IC50 in assay [2] amounted to 1550 nM.

As for `Cc1nnc(-n2c(=O)n(C)c3ccc(S(=O)(=O)NC4(C)CC4)cc32)o1` [Example 189, 1-Methyl-N-(1-methylcyclopropyl)-3-(5-methyl-1,3,4-oxadiazol-2-yl)-2-oxo-benzimidazole-5-sulfonamide], the EC50 in assay [1] was found to be 1790 nM. Also, the IC50 in assay [2] was 1230 nM.

`CCn1c(=O)n(-c2nnc(C(F)F)o2)c2cc(S(=O)(=O)NC3(CF)CC3)ccc21` [Example 202, 3-[5-(Difluoromethyl)-1,3,4-oxadiazol-2-yl]-1-ethyl-N-[1-(fluoromethyl)cyclopropyl]-2-oxo-benzimidazole-5-sulfonamide]: in assay [1], the EC50 stood at 421 nM. Also, in assay [2], the 50% inhibitory concentration (IC50) was found to be 240 nM.

As for `C#CCn1c(=O)n(-c2nnc(C)s2)c2cc(S(=O)(=O)NC3(C)CC3)ccc21` [Example 100], the EC50 in assay [1] was found to be 265 nM. Further, in assay [2], the half-inhibitory concentration (IC50) amounted to 194 nM.

Consider `Cc1nnc(-n2c(=O)n(Cc3ncco3)c3ccc(S(=O)(=O)NC4(C)CC4)cc32)s1` [Example 101], for which the EC50 in assay [1] came out at 246 nM. For the same compound, the IC50 in assay [2] came out at 390 nM.

As for `COc1ccc(Cn2c(=O)n(-c3nnc(C)s3)c3cc(S(=O)(=O)NC4(C)CC4)ccc32)cc1` [Example 86], the EC50 in assay [1] came to 403 nM. Also, the IC50 in assay [2] came to 277 nM.
